# Earlier results in US20170368087A1, “PHARMACEUTICAL COMPOSITION COMPRISING TOPIRAMATE” (INNOVACO PHARMACEUTICALS, INC., priority 2014, published 2017).
structure (smiles),measurement,setting,value
"CC1(C)O[C@@H]2[C@@H](CO[C@@]3(COS(N)(=O)=O)OC(C)(C)O[C@@H]23)O1 [Topiramate, 2,3:4,5-Di-O-isopropylidene-β-D-fructo-pyranose sulfamate]","solubility in acetone, dimethyl sulfoxide, ethanol, and alkaline solutions containing sodium hydroxide or sodium phosphate",,freely soluble
same,solubility in water,room temperature,approximately 9.8 mg/mL
